# Experimental data: PMC5923123, “In Vitro and In Vivo Efficacy of a Novel and Long-Acting Fungicidal Azole, PC1244, on Aspergillus fumigatus Infection” (Antimicrobial Agents and Chemotherapy, 2018)
# Read-outs that look alike come from different tables or passages of the source.
# Experiments:
# [1] = test system: Aspergillus carbonarius (ATCC 8740); test: CLSI MIC; type: cell-based
# 23 pathogenic fungi = type: cell-based; conditions: broad spectrum of pathogenic fungi
# [2] = test system: Aspergillus terreus (AT49, AT7130); test: EUCAST MIC; type: cell-based
# [3] = test system: Gibberella zeae(Fusarium graminearum) (ATCC 16106); test: microbe, parasite or virus in culture; type: cell-based; conditions: ATCC16106
# [4] = test system: A. fumigatus (ATCC 13073 [strain NIH 5233]); test: In vivo extended prophylaxis (intranasal, days -7 to 0) in infected immunocompromised mice; conditions: 0.0032 mg/ml (0.11 μg/mouse), compared to late intervention at the same dose
# Description: The test agents, suspended in physiological saline, were administered intranasally (35 μl, approximately 17.5 μl each in each nostril) once daily on days 1, 2, and 3 postinfection. […] As the injection volume was fixed and the body weight changed every day, especially after infection, the accurate dose unit was the number of micrograms per mouse. However, as the average body weight after immunosuppression and just before infection was 20 g, we also calculated the estimated dose in milligrams per kilogram.
# A. fumigatus (NCPF2010) = test: Broth microdilution MIC (96-well) preceding MFC determination; conditions: Aspergillus fumigatus
# Description: After the MIC for each compound was recorded, fungicidal activity was determined as previously described ([35]). Briefly, medium from each well (100 μl/well) was removed after pipetting up and down five times and subcultured onto 4% Sabouraud dextrose agar plates. The plates were incubated (35°C with ambient air) for 48 h, and the numbers of CFU were counted for each compound concentration. The minimum fungicidal concentration (MFC) was determined as the lowest compound concentration yielding 3 colonies or less.
# [5] = test system: Aureobasidium pullulans (ATCC 348); test: CLSI MIC; type: cell-based; conditions: ATCC348, 1 strain
# [6] = test system: Penicillium chrysogenum (ATCC 9480); test: CLSI MIC; type: cell-based; conditions: ATCC9480, 1 strain
# A. fumigatus CYP51B = A. fumigatus CYP51B (Aspergillus fumigatus, UniProt E9QY26); test: CYP51 reconstitution assay (sterol 14α-demethylase inhibition)
# Sequence of A. fumigatus CYP51B (E9QY26 whole entry): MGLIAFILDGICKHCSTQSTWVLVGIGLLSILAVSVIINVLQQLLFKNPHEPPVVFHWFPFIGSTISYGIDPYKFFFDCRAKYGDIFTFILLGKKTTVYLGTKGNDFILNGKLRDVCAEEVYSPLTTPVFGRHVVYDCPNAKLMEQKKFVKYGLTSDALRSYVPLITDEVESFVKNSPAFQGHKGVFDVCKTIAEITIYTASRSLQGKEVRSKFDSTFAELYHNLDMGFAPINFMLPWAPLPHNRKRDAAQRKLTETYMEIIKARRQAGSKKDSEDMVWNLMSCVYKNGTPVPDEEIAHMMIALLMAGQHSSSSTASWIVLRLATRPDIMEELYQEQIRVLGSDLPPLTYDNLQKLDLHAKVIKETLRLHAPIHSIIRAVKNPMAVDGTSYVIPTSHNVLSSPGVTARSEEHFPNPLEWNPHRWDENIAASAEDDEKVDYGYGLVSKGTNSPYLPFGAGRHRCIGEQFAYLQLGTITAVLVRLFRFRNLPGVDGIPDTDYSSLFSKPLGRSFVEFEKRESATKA
# Description: (§1) The test agent was added to a mixture of 0.5 μM CYP51, 1 μM A. fumigatus cytochrome P450 reductase isoenzyme 1 (AfCPR1), 50 μM eburicol, 4% (wt/vol) 2-hydroxypropyl-β-cyclodextrin, 0.4 mg/ml isocitrate dehydrogenase, 25 mM trisodium isocitrate, 50 mM NaCl, 5 mM MgCl2, and 40 mM 3-(N-morpholino) propanesulfonic acid (MOPS; pH of ∼7.2). The mixtures were then incubated at 37°C for 10 min prior to initiation with 4 mM β-NADPHNa4, followed by shaking for 20 min at 37°C. Sterol metabolites were recovered by extraction with ethyl acetate followed by derivatization with 0.1 ml N,O-bis(trimethylsilyl)trifluoroacetamide: trimethylchlorosilane (99:1) and 0.3 ml anhydrous pyridine prior to analysis by gas chromatography-mass spectrometry.
# [7] = test system: Cryptococcus gattii (clinical isolate); test: EUCAST MIC (EDef 7.2); type: cell-based; conditions: 1 strain
# [8] = in vivo
# [9] = test system: Rhizomucor pusillus (ATCC 16458); test: CLSI MIC; type: cell-based; conditions: ATCC16458, 1 strain
# in vivo = conditions: mouse
# [10] = test system: Candida parapsilosis (ATCC 22019); test: CLSI MIC; type: cell-based; conditions: ATCC22019, 1 strain, MIC = 50% inhibition of fungal growth
# [11] = test system: A. fumigatus (ATCC 13073 [strain NIH 5233]); test: In vivo antifungal activity, late intervention (intranasal, days 1-3 postinfection), temporarily neutropenic mice; conditions: for inhibition of GM in serum: 0.08 mg/ml (2.8 μg/mouse) intranasal once daily days 1-3; for inhibition of fungal load (CFU) in the lung vs vehicle: 0.08 mg/ml, 35 μl intranasal once daily days 1-3 postinfection
# [12] = test system: Cryptococcus neoformans (ATCC 24067); test: CLSI MIC; type: cell-based
# A. fumigatus CYP51A = A. fumigatus CYP51A (Aspergillus fumigatus, UniProt Q4WNT5); test: CYP51 reconstitution assay (sterol 14α-demethylase inhibition)
# Sequence of A. fumigatus CYP51A (Q4WNT5 whole entry): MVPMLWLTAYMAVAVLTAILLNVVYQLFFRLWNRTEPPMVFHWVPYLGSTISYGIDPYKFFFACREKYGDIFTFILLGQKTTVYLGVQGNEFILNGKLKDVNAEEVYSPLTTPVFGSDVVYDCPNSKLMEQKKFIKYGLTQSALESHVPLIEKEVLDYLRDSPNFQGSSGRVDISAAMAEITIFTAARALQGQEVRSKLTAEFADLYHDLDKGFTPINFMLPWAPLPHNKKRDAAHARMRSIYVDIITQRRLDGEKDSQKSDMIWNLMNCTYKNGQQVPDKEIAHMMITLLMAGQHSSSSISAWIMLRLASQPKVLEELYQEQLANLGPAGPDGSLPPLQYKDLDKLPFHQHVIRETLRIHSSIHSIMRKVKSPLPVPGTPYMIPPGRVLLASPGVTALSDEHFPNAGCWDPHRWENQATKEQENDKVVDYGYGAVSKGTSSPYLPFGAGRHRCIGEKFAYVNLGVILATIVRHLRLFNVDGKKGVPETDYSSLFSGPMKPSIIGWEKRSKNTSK
# Description: as §1
# [13] = test system: A. fumigatus (ATCC 13073 [strain NIH 5233]); test: MIC against the strain used in vivo; type: cell-based; conditions: Aspergillus fumigatus, ATCC13073
# [14] = test system: Candida krusei (ATCC 6258); test: CLSI MIC; type: cell-based; conditions: Pichia kudriavzevii, ATCC6258
# [15] = test system: Rhizopus oryzae(ATCC 11145); test: CLSI MIC; type: cell-based; conditions: Rhizopus arrhizus, ATCC11145, 1 strain
# [16] = test system: sterol composition of A. fumigatus (NCPF2010); test: A. fumigatus sterol analysis (GC-MS); type: cell-based, Aspergillus fumigatus; conditions: 2 h
# [17] = test system: A. fumigatus (ATCC 13073); test: In vivo persistence of action: single intranasal prophylactic dose 16 h before inoculation; conditions: PC1244 0.4 mg/ml, POS 0.8 mg/ml intranasal 16 h before inoculation; lungs 8 h after
# [18] = test system: Candida glabrata (ATCC 36583, R363); test: CLSI MIC; type: cell-based; conditions: Nakaseomyces glabratus
# [19] = test system: Candida albicans AR (20183.073, 20186.025); test: CLSI MIC; type: cell-based
# A. fumigatus isolates = test system: A. fumigatus isolates; set-up: method as in PMID 12202554; conditions: MFC = lowest dilution yielding less than 3 colonies; cited from earlier work
# A. fumigatus ATCC 204305 = test: EUCAST MIC, quality control strain; type: cell-based; conditions: Aspergillus fumigatus, ATCC204305; quality control strain ATCC 204305
# Description: The antifungal activity of PC1244 was further evaluated against 96 clinical isolates (obtained from Saint Louis Hospital, Paris, France [50 isolates], and the North West England Mycology Reference Centre, Manchester, UK [46 isolates]). […] .
# [20] = ATCC8740, CLSI, 1 strain, read-out: MIC
# [21] = EUCAST, 2 strains, mean MIC, read-out: MIC
# [22] = ATCC24067, CLSI, 1 strain, read-out: MIC
structure (smiles),measurement,setting,value
"Cc1cc(N2CCN(c3ccc(C(=O)N[C@H]4CCCC[C@@H]4O)cc3)CC2)ccc1OC[C@@H]1CO[C@@](Cn2cncn2)(c2ccc(F)cc2F)C1 [PC1244, 4-(4-(4-(((3R,5R)-5-((1H-1,2,4-triazol-1-yl)methyl)-5-(2,4-difluorophenyl)tetrahydrofuran-3-yl)methoxy)-3-methylphenyl)piperazin-1-yl)-N-((1S,2S)-2-hydroxycyclohexyl)benzamide]",MIC,[1]; [20],0.063 µg/mL
same,MIC Range,23 pathogenic fungi,<0.0078 to 2 µg/mL
same,MIC,[2]; [21],0.38 µg/mL
same,MIC,[3],1 µg/mL
same,effect on fungal load and biomarkers,[4],high levels of inhibitory effects
same,MIC,A. fumigatus (NCPF2010),0.063 µg/mL
same,MIC,[5],1 µg/mL
same,MIC,[6],0.13 µg/mL
same,IC50,A. fumigatus CYP51B,230 nM
same,Ki,A. fumigatus CYP51B,< 1 nM
same,MIC,[7],0.5 µg/mL
same,oral availability,[8],much less oral availability than posaconazole
same,MIC,[9],2 µg/mL
same,concentration at 2 h,in vivo,111 to 303 ng/mL
same,concentration at 8 h,in vivo,249 to 339 ng/mL
same,concentration at 24 h,in vivo,41.5 to 50.7 ng/mL
same,MIC,[10],0.25 µg/mL
same,inhibition of GM in serum,[11],82%
same,inhibition of fungal load (CFU) in the lung vs vehicle,[11],97%
same,CXCL1 level in BALF,[11]; infection-dependent increase,reduced
same,interleukin-6 (IL-6) level in serum,[11]; infection-dependent increase,reduced
same,tumor necrosis factor alpha (TNF-α) level in serum,[11]; infection-dependent increase,reduced
same,ID50 (GM in BALF) fold lower than that of POS,"[11]; mouse, in vivo",6.7 fold
same,A. fumigatus PCR products in lung tissue,[11]; pilot study,inhibited the accumulation of PCR products
same,MIC,[12]; [22],0.016 µg/mL
same,IC50,A. fumigatus CYP51A,270 nM
same,Ki,A. fumigatus CYP51A,< 1 nM
same,MIC,"[13]; strain ATCC 13073, read-out: MIC",0.063 µg/mL
same,MIC,"[14]; CLSI, 1 strain, read-out: MIC",0.13 µg/mL
same,MIC,[15],0.25 µg/mL
same,Sterol composition: Eburicol,[16]; compound at 0.0001 μg/ml,2.5 ± 1.1%
same,"Sterol composition: Ergost-5,7-dienol",[16]; compound at 0.0001 μg/ml,4.6 ± 1.8%
same,Sterol composition: Ergosterol,[16]; compound at 0.0001 μg/ml,91.3 ± 0.1%
same,Sterol composition: Lanosterol,[16]; compound at 0.0001 μg/ml,1.7 ± 0.7%
same,Sterol composition: Eburicol,[16]; compound at 0.001 μg/ml,3.4 ± 1.2%
same,"Sterol composition: Ergost-5,7-dienol",[16]; compound at 0.001 μg/ml,4.6 ± 0.8%
same,Sterol composition: Ergosterol,[16]; compound at 0.001 μg/ml,89.2 ± 0.2%
same,Sterol composition: Lanosterol,[16]; compound at 0.001 μg/ml,2.8 ± 0.6%
same,Sterol composition: Eburicol,[16]; compound at 0.01 μg/ml,14.7 ± 1.5%
same,"Sterol composition: Ergost-5,7-dienol",[16]; compound at 0.01 μg/ml,0%
same,Sterol composition: Ergosterol,[16]; compound at 0.01 μg/ml,76.8 ± 2.6%
same,Sterol composition: Lanosterol,[16]; compound at 0.01 μg/ml,8.5 ± 1.1%
same,Sterol composition: Eburicol,[16]; compound at 0.1 μg/ml,26.7 ± 0.8%
same,"Sterol composition: Ergost-5,7-dienol",[16]; compound at 0.1 μg/ml,0%
same,Sterol composition: Ergosterol,[16]; compound at 0.1 μg/ml,61.0 ± 1.6%
same,Sterol composition: Lanosterol,[16]; compound at 0.1 μg/ml,12.3 ± 0.8%
same,Sterol composition: Eburicol,[16]; compound at 1 μg/ml,28.2 ± 1.3%
same,"Sterol composition: Ergost-5,7-dienol",[16]; compound at 1 μg/ml,0%
same,Sterol composition: Ergosterol,[16]; compound at 1 μg/ml,58.7 ± 2.2%
same,Sterol composition: Lanosterol,[16]; compound at 1 μg/ml,13.1 ± 0.9%
same,GM levels in the lung,[17],significant inhibition
same,number of CFU in the lung,[17],significant inhibition
"C[C@@H](c1ncncc1F)[C@](O)(Cn1cncn1)c1ccc(F)cc1F [Voriconazole, voriconazole]",MIC,[1]; ATCC8740,0.5 µg/mL
same,MIC,[2],1 µg/mL
same,MIC,[3],> 8 µg/mL
same,MIC,A. fumigatus (NCPF2010),1.67 ± 0.58 µg/mL
same,MIC,[5],> 8 µg/mL
same,MIC,[6],2 µg/mL
same,MIC,[9],> 8 µg/mL
same,MIC,[12]; ATCC24067,0.016 µg/mL
same,MIC,[13],0.5 µg/mL
same,MIC,[18]; ATCC36583,8.13 µg/mL
same,MIC,[14],0.25 µg/mL
same,MIC,[15],> 8 µg/mL
same,MIC,[19],10 µg/mL
same,range of MFCs for inhibition of 90% of isolates tested (MFC90),A. fumigatus isolates,0.5 to 4 µg/mL
"CC[C@@H]([C@H](C)O)n1ncn(-c2ccc(N3CCN(c4ccc(OC[C@@H]5CO[C@@](Cn6cncn6)(c6ccc(F)cc6F)C5)cc4)CC3)cc2)c1=O [Posaconazole, posaconazole]",MIC,[1]; [20],0.063 µg/mL
same,MIC,[2]; [21],0.093 µg/mL
same,MIC,[3],> 8 µg/mL
same,MIC,A. fumigatus (NCPF2010),0.125 µg/mL
same,MIC,[5],1 µg/mL
same,MIC,[6],0.13 µg/mL
same,Ki,A. fumigatus CYP51B,< 1 nM
same,MIC,[7],0.5 µg/mL
same,MIC,[9],> 8 µg/mL
same,concentration at 24 h,in vivo,15.6 to 125 ng/mL
same,MIC,[10],0.25 µg/mL
same,inhibition of GM in serum,[11],−11%
same,inhibition of fungal load (CFU) in the lung vs vehicle,[11],39%
same,log10 ID fold higher than that of PC1244,"[11]; mouse, in vivo",143 fold
same,MIC,[12]; [22],0.016 µg/mL
same,Ki,A. fumigatus CYP51A,< 1 nM
same,MIC,A. fumigatus ATCC 204305,0.25 µg/mL
same,MIC,"[18]; ATCC36583, CLSI, 2 strains, MIC = 50% inhibition, two individual values for PC1244, read-out: MIC",0.5 µg/mL
same,MIC,[15],> 8 µg/mL
same,Sterol composition: Eburicol,[16]; compound at 0.0001 μg/ml,2.2 ± 1.2%
same,"Sterol composition: Ergost-5,7-dienol",[16]; compound at 0.0001 μg/ml,3.3 ± 1.9%
same,Sterol composition: Ergosterol,[16]; compound at 0.0001 μg/ml,94.5 ± 0.1%
same,Sterol composition: Lanosterol,[16]; compound at 0.0001 μg/ml,0%
same,Sterol composition: Eburicol,[16]; compound at 0.001 μg/ml,5.9 ± 0.5%
same,"Sterol composition: Ergost-5,7-dienol",[16]; compound at 0.001 μg/ml,3.9 ± 0.6%
same,Sterol composition: Ergosterol,[16]; compound at 0.001 μg/ml,87.2 ± 0.7%
same,Sterol composition: Lanosterol,[16]; compound at 0.001 μg/ml,3.0 ± 0.9%
same,Sterol composition: Eburicol,[16]; compound at 0.01 μg/ml,18.3 ± 1.1%
same,"Sterol composition: Ergost-5,7-dienol",[16]; compound at 0.01 μg/ml,0%
same,Sterol composition: Ergosterol,[16]; compound at 0.01 μg/ml,74.7 ± 0.8%
same,Sterol composition: Lanosterol,[16]; compound at 0.01 μg/ml,7.0 ± 0.3%
same,Sterol composition: Eburicol,[16]; compound at 0.1 μg/ml,23.4 ± 0.8%
same,"Sterol composition: Ergost-5,7-dienol",[16]; compound at 0.1 μg/ml,0%
same,Sterol composition: Ergosterol,[16]; compound at 0.1 μg/ml,67.8 ± 0.3%
same,Sterol composition: Lanosterol,[16]; compound at 0.1 μg/ml,8.8 ± 0.5%
same,Sterol composition: Eburicol,[16]; compound at 1 μg/ml,23.8 ± 1.3%
same,"Sterol composition: Ergost-5,7-dienol",[16]; compound at 1 μg/ml,0%
same,Sterol composition: Ergosterol,[16]; compound at 1 μg/ml,67.4 ± 1.5%
same,Sterol composition: Lanosterol,[16]; compound at 1 μg/ml,8.8 ± 0.4%
same,MIC,"[19]; CLSI, 2 azole (fluconazole and voriconazole) resistant strains, MIC = 50% inhibition, two individual values for PC1244, read-out: MIC",8.13 µg/mL
same,number of CFU in the lung,[17],did not
same,range of MFCs for inhibition of 90% of isolates tested (MFC90),A. fumigatus isolates,0.06 to 2 µg/mL
